Results reported in PMC7156458, “Synthetic biology based construction of biological activity-related library of fungal decalin-containing diterpenoid pyrones” (Nature Communications, 2020).

Experiments:
[1] = test system: hepatitis B virus (HBV), measles virus (MV), Epstein-Barr virus (EBV), herpes simplex virus (HSV); test: preliminary anti-viral screening (other viruses); format: cell-based
From the text: We examined the inhibitory activities of DDPs against various species of bacteria (both gram-negative and gram-positive bacteria), fungi and viruses. […] In contrast, preliminary screening of the DDPs for anti-viral agents with hepatitis B virus (HBV), measles virus (MV), Epstein-Barr virus (EBV), herpes simplex virus (HSV) and human immunodeficiency virus-1 (HIV-1) indicated their selective inhibition of HIV.

U251 = test: cells; design: species or system JFCR39 human cancer cell lines; JFCR39 panel growth inhibition, sulforhodamine B total protein after 48 h; details: for GI50: Homo sapiens, U-251, 48 h
Method in brief: (§1)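 Growth inhibition in JFCR39 human cancer lines was quantified by the SRB total-protein method following 48 h compound treatment. GI50 came from duplicate runs.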

DU-145 = test: cells; design: species or system JFCR39 human cancer cell lines; JFCR39 panel growth inhibition, sulforhodamine B total protein after 48 h; details: for GI50: Homo sapiens, DU-145, 48 h
Method in brief: as §1

St-4 = test: cells; design: species or system JFCR39 human cancer cell lines; JFCR39 panel growth inhibition, sulforhodamine B total protein after 48 h; details: for GI50: Homo sapiens, St-4, 48 h
Method in brief: as §1

KM-12 = test: cells; design: species or system JFCR39 human cancer cell lines; JFCR39 panel growth inhibition, sulforhodamine B total protein after 48 h; details: for GI50: Homo sapiens, KM12, 48 h
Method in brief: as §1

MCF-7 = test: cells; design: species or system JFCR39 human cancer cell lines; JFCR39 panel growth inhibition, sulforhodamine B total protein after 48 h; details: Homo sapiens, MCF7, 48 h
Method in brief: as §1

OVCAR-4 = test: cells; design: species or system JFCR39 human cancer cell lines; JFCR39 panel growth inhibition, sulforhodamine B total protein after 48 h; details: for GI50: Homo sapiens, OVCAR-4, 48 h
Method in brief: as §1

NCI-H460 = test: cells; design: species or system JFCR39 human cancer cell lines; JFCR39 panel growth inhibition, sulforhodamine B total protein after 48 h; details: for GI50: Homo sapiens, NCI-H460, 48 h; for Log GI50: 48 h, inhibitor, Log GI50, 48 h
Method in brief: as §1

SF-295 = test: cells; design: species or system JFCR39 human cancer cell lines; JFCR39 panel growth inhibition, sulforhodamine B total protein after 48 h; details: Homo sapiens, SF-295, 48 h
Method in brief: as §1

HCC2998 = test: cells; design: species or system JFCR39 human cancer cell lines; JFCR39 panel growth inhibition, sulforhodamine B total protein after 48 h; details: for GI50: Homo sapiens, HCC 2998, 48 h
Method in brief: as §1

A549 = test: cells; design: species or system JFCR39 human cancer cell lines; JFCR39 panel growth inhibition, sulforhodamine B total protein after 48 h; details: for GI50: Homo sapiens, A549, 48 h
Method in brief: as §1

BSY-1 = test: cells; design: species or system JFCR39 human cancer cell lines; JFCR39 panel growth inhibition, sulforhodamine B total protein after 48 h; details: for GI50: BSY-1, 48 h; for Log GI50: 48 h, inhibitor, Log GI50, 48 h
Method in brief: as §1

DMS273 = test: cells; design: species or system JFCR39 human cancer cell lines; JFCR39 panel growth inhibition, sulforhodamine B total protein after 48 h; details: for GI50: Homo sapiens, DMS-273, 48 h; for Log GI50: 48 h, inhibitor, Log GI50, 48 h
Method in brief: as §1

HCT-15 = test: cells; design: species or system JFCR39 human cancer cell lines; JFCR39 panel growth inhibition, sulforhodamine B total protein after 48 h; details: for GI50: Homo sapiens, HCT-15, 48 h; for Log GI50: 48 h, inhibitor, Log GI50, 48 h
Method in brief: as §1

HBC-4 = test: cells; design: species or system JFCR39 human cancer cell lines; JFCR39 panel growth inhibition, sulforhodamine B total protein after 48 h; details: for GI50: HBC4, 48 h
Method in brief: as §1

MDA-MB-231 = test: cells; design: species or system JFCR39 human cancer cell lines; JFCR39 panel growth inhibition, sulforhodamine B total protein after 48 h; details: for GI50: Homo sapiens, MDA-MB-231, 48 h
Method in brief: as §1

[2] = 48 h, inhibitor, Log GI50, 48 h

Compound	effect on other viruses [1]	GI50 (U251)	GI50 (DU-145)	GI50 (St-4)	GI50 (KM-12)	GI50 (MCF-7)	GI50 (OVCAR-4)	GI50 (NCI-H460)	GI50 (SF-295)	GI50 (HCC2998)	GI50 (A549)	GI50 (BSY-1)	GI50 (DMS273)	GI50 (HCT-15)	GI50 (HBC-4)	GI50 (MDA-MB-231)	also measured
C=C1CCC2C3(C)CC(C=C(C)C)OC3CCC2(C)C1Cc1c(OC)oc(C)c(C)c1=O (stereo not shown) [Compound 23]	without affecting other viruses																
C=C1CCC2C(C)(CCC=C(C)C)C(O)CCC2(C)C1Cc1c(OC)oc(CO)c(C(=O)OC)c1=O (stereo not shown) [Compound 13]		19.9 µM	15.2 µM	21.9 µM	19.1 µM	13.8 µM	15.5 µM	11.2 µM	11.9 µM	17.7 µM	19.8 µM	13.9 µM	16.3 µM	18.5 µM	21.8 µM	19.6 µM	
C=C1CCC2C(C)(CC(=O)C=C(C)C)C(O)CCC2(C)C1Cc1c(O)c(C)c(C)oc1=O (stereo not shown) [Compound 7]		95.5 µM		69.2 µM	56 µM	22.6 µM	35.8 µM	11.6 µM	25.4 µM		66.7 µM	37 µM	14.1 µM	55.6 µM		58.3 µM	
C=C1CC[C@@H]2[C@](C)(CC[C@H]3O[C@H](C=C(C)C)C[C@@]23C)[C@@H]1Cc1c(OC)oc(CO)c(C)c1=O [Compound 20]	without affecting other viruses	13.8 µM	12.7 µM	14.3 µM	14.8 µM		11.9 µM	0.0811 µM	11.2 µM	15.9 µM	11.4 µM	12.2 µM	0.0893 µM	10.1 µM	15.6 µM	13.1 µM	
C=C1CC[C@@H]2[C@](C)(CC[C@H]3O[C@H](C=C(C)C)C[C@@]23C)[C@@H]1Cc1c(OC)oc(C)c(C)c1=O [Compound 22, O-methylated higginsianin A]		11.6 µM		11 µM	10.6 µM	1.5 µM	2.77 µM	0.0807 µM	2.45 µM	8.85 µM			0.224 µM		11.9 µM		
C=C1CC[C@H]2[C@]3(C)C[C@H](C=C(C)C)O[C@H]3CC[C@]2(C)[C@@H]1Cc1c(OC)oc(CO)c(C)c1=O [Compound 18]	without affecting other viruses																
C=C1CC[C@H]2[C@]3(C)C[C@H](C=C(C)C)O[C@H]3CC[C@]2(C)[C@@H]1Cc1c(OC)oc(C)c(C)c1=O [Compound 24]	without affecting other viruses																
C=C1CCC2C(C)(CC(=O)C=C(C)C)C(O)CCC2(C)C1Cc1c(OC)oc(CO)c(C)c1=O (stereo not shown) [Compound 19]		69.7 µM	42.9 µM	75.3 µM	56.2 µM	25.4 µM	52.6 µM	6 µM	17.2 µM		34.4 µM	33.3 µM	9.98 µM	52.8 µM			
C=C1CCC2C(C)(CCC=C(C)C)C(O)CCC2(C)C1Cc1c(OC)oc(CO)c(C)c1=O (stereo not shown) [Compound 12]	without affecting other viruses	15 µM	11.8 µM	14.1 µM	12.9 µM		9.93 µM			15.7 µM	6.24 µM				13.8 µM	13.5 µM	Log GI50 (NCI-H460): -7.132 M; Log GI50 (BSY-1): -5.304 M; Log GI50 (DMS273): -7.063 M; Log GI50 (HCT-15): -5.533 M
C=C1CCC2C(C)(CCC=C(C)C)C(O)CCC2(C)C1Cc1c(OC)oc(CO)c(C)c1=O (stereo not shown) [Compound 16]						4.46 µM			2.8 µM								Log GI50 (U251; [2]): -4.880 M; Log GI50 (DU-145; [2]): -4.962 M; Log GI50 (St-4; [2]): -4.853 M; Log GI50 (KM-12; [2]): -4.862 M; Log GI50 (OVCAR-4; [2]): -4.966 M; Log GI50 (NCI-H460): -6.167 M; Log GI50 (HCC2998; [2]): -4.871 M; Log GI50 (A549; [2]): -5.056 M; Log GI50 (BSY-1): -4.961 M; Log GI50 (DMS273): -5.822 M; Log GI50 (HCT-15): -5.220 M; Log GI50 (HBC-4; [2]): -4.804 M; Log GI50 (MDA-MB-231; [2]): -4.882 M
C=C1CCC2C(C)(CCC=C(C)C)C(O)CCC2(C)C1Cc1c(OC)oc(C)c(C)c1=O (stereo not shown) [Compound 11]	without affecting other viruses	22.8 µM	16.5 µM	24.9 µM		1.88 µM	9.06 µM	0.0865 µM		36.7 µM		11.5 µM	0.199 µM	1.22 µM	35.8 µM	22.6 µM	
C=C1CC[C@H]2[C@]3(C)C[C@@H](C=C(C)C)O[C@H]3CC[C@]2(C)[C@@H]1Cc1c(OC)oc(CO)c(C)c1=O [Compound 17]	without affecting other viruses	14.3 µM	13.2 µM	15.2 µM	14.5 µM		12.2 µM	0.0916 µM	10.7 µM	14 µM	12.3 µM	12.8 µM	0.713 µM	0.942 µM	16.6 µM	13.9 µM	
C=C1CC[C@@H]2[C@](C)(CC[C@H]3O[C@H](C=C(C)C)C[C@@]23C)[C@@H]1Cc1c(OC)oc(CO)c(C(=O)OC)c1=O [Compound 21]		17.5 µM	15.7 µM	20 µM	18.2 µM	14.2 µM	15.1 µM	12.1 µM	12.1 µM	18.2 µM	18.5 µM	14.9 µM	16.6 µM	17.6 µM	16.8 µM	17.8 µM	
C=C1CCC2C(C)(CCC=C(C)C)C(O)CCC2(C)C1Cc1c(OC)oc(C)c(C(=O)OC)c1=O (stereo not shown) [Compound 14]	without affecting other viruses	15 µM	11.8 µM	14.6 µM	14.1 µM	2.4 µM	11.9 µM	0.0735 µM	11.5 µM	16.7 µM	11 µM	10.2 µM	0.289 µM	10.2 µM	16.1 µM	13.2 µM	
C=C1CC[C@@H]2[C@](C)(CC[C@H]3O[C@H](C=C(C)C)C[C@@]23C)[C@@H]1Cc1c(O)c(C)c(C)oc1=O [Compound 10, higginsianin A]	without affecting other viruses																
C=C1CC[C@H]2[C@]3(C)C[C@@H](C=C(C)C)O[C@H]3CC[C@]2(C)[C@@H]1Cc1c(O)c(C)c(C)oc1=O [Compound 5, subglutinol A]	without affecting other viruses																
